The source made the active and inactive calls.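 How the source made its calls: active means half-inhibition concentration IC50 of 10 µM or lower; inactive means IC50 above 10 µM.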

The target of this assay is Disintegrin and metalloproteinase domain-containing protein 10 (Homo sapiens) (UniProt O14672). The assay is described as follows: ADAM10 inhibitors, peptide cleavage, dose response, biochemical, QFRET (AID 743254). The conditions noted are these: EDANS fluorescence, 3 h.
Disintegrin and metalloproteinase domain-containing protein 10 (Homo sapiens), sequence (O14672 214-748 limits assumed): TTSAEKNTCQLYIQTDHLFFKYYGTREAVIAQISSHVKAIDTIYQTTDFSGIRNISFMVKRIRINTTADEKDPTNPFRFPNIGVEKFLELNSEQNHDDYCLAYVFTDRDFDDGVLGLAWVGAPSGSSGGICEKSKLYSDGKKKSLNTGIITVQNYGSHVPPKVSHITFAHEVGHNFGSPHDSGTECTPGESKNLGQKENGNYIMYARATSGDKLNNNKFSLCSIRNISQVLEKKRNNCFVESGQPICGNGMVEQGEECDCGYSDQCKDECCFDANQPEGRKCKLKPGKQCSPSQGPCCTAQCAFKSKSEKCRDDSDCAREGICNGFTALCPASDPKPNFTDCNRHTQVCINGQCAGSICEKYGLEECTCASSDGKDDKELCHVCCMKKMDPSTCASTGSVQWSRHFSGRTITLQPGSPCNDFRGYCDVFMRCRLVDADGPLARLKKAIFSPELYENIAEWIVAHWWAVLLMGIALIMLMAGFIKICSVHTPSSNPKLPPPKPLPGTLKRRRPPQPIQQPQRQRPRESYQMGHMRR
One may read the IC50 as the point on the concentration scale where inhibition reaches its midpoint. As for `O=[N+]([O-])c1ccc(O)c(/C=N/Nc2ccccn2)c1`, the IC50 result was “inactive”.
On to `Oc1ccc(Cl)cc1-c1cc(-c2cccc(Br)c2)n[nH]1`, for which the IC50 is > 69.5 µM (inactive).
With `O=C1OCCN1C(=O)[C@H]1[C@H](c2ccc([N+](=O)[O-])cc2)C(c2ccc(F)cc2)=NN1c1ccc(Br)cc1`, the IC50 result was “inactive”.
For the compound `CCOC(=O)c1c(CSc2ccc(C)cc2)oc2ccc(O)cc12`, the IC50 result is “inactive”.
As for `CCc1ccc(NC(=O)c2ccc(F)c(S(=O)(=O)NCC3COc4ccccc4O3)c2)cc1` (stereo not given), the IC50 entry was “inactive”.
For `Cc1ccc(NS(=O)(=O)c2ccc(Cl)c(NC(=S)NC(=O)C3CCCCC3)c2)cc1Cl` the value was “inactive”; for `COc1ccc(C(Nc2cc(C)ccn2)c2ccc3ccc(C)nc3c2O)cc1` (stereo not given), 7.23 µM.
On to `Cc1cc(C)c(CSc2ncc(-c3ccc([N+](=O)[O-])cc3)[nH]2)c(C)c1`, for which the IC50 entry was “inactive”.
For the compound `O=[N+]([O-])c1ccc(S(=O)(=O)Nc2ccc(-c3csc(-c4ccccc4)n3)cc2)cc1`, the IC50 result is “inactive”.
For the compound `O=C1CC(N(CCc2ccccc2)C(=S)Nc2cc(Cl)ccc2Cl)C(=O)N1c1c(Cl)cccc1Cl` (stereo not given), the IC50 was > 69.5 µM (inactive).
With `CC(=O)c1ccc(N2CCC(c3cc(-c4ccc(Cl)cc4Cl)n[nH]3)CC2)c([N+](=O)[O-])c1`, the IC50 entry is “inactive”.
Turning to `O=C(Nc1cccc(S(=O)(=O)Nc2ccc(Cl)cc2)c1)c1cc2c(s1)CCCC2`, the IC50 was > 69.5 µM (inactive).
Consider `O=[N+]([O-])c1cc(S(=O)(=O)Nc2ccccc2)ccc1N1CCN(c2ccccc2)CC1`, for which the IC50 entry is “inactive”.
For `COc1ccc(S(=O)(=O)Nc2cc3c4c(oc3c3ccccc23)CC(C)(C)CC4=O)cc1`, the IC50 is > 69.5 µM (inactive).
In the case of `O=C(NNC(=O)c1cc(-c2ccccc2)nc2ccccc12)Nc1cccc(Cl)c1`, the IC50 is > 69.5 µM (inactive).
`O=[N+]([O-])c1ccc(-c2nc(-c3cccs3)c(-c3cccs3)[nH]2)cc1`: the IC50 was > 69.5 µM (inactive).
The value for `COc1ccc(-c2cn[nH]c2-c2ccc(OCc3ccccc3)cc2O)cc1` was 9.61 µM; that for `O=C(NNc1ccccc1Br)C(O)(c1cccc(C(F)(F)F)c1)c1cccc(C(F)(F)F)c1` was “inactive”; that for `O=C1OCCN1C(=O)[C@H]1[C@H](c2ccc([N+](=O)[O-])cc2)C(c2cccc(Cl)c2)=NN1c1ccc(Br)cc1` was “inactive”.
Consider `O=C(Nc1ccc(N2CCCC2)c(S(=O)(=O)Nc2cccc(C(F)(F)F)c2)c1)c1cccs1`, for which the IC50 is > 69.5 µM (inactive).
On to `Cc1cccc(C)c1OCC(O)Cn1c2ccccc2c2ccccc21` (stereo not given), for which the IC50 is > 69.5 µM (inactive).
With `COc1cc(/C=N/O)cc(Br)c1OCc1ccc(Cl)cc1`, the IC50 was > 69.5 µM (inactive).
Turning to `Fc1c(F)c(C(F)(F)F)c(F)c(F)c1N/N=C\c1cccs1`, the IC50 was > 69.5 µM (inactive).
Take `O=C(OCc1csc(Nc2ccccc2)n1)c1ccc(Cl)cc1`: the IC50 entry is “inactive”.
Regarding `N#Cc1c(Cl)nc(N/N=C/c2ccccc2)c(Cl)c1Cl`, the IC50 was > 69.5 µM (inactive).
The value for `O=C(Nc1ccc(OCC(F)(F)C(F)F)c(C(F)(F)F)c1)c1ccc(Cl)cc1` was 7.43 µM; that for `O=[N+]([O-])c1cccnc1N1CCC(c2cc(-c3ccc(Cl)cc3)n[nH]2)CC1` was 8.8 µM; that for `O=C(NNC(=O)c1cc(-c2ccc(Cl)cc2)nc2ccccc12)c1csc(N2CCOCC2)n1` was > 69.5 µM (inactive).
In the case of `COc1ccc(-c2ccc(-c3noc(-c4cccc(OC)c4)n3)c(OC)n2)cc1`, the IC50 is > 69.5 µM (inactive).
The value for `COc1ccc(CCN2C(=O)c3[nH]nc(-c4ccccc4O)c3C2c2cccc(Cl)c2)cc1` (stereo not given) was “inactive”; that for `COC(=O)c1ccc(N2CCC(c3cc(-c4ccc(OC)cc4)n[nH]3)CC2)c([N+](=O)[O-])c1` was > 69.5 µM (inactive); that for `CCCN(CC(=O)Nc1cc(Cl)cc(Cl)c1)CC(=O)Nc1ccc(F)c(F)c1F` was “inactive”.
`C=C(C)COc1ccc(-c2[nH]ncc2Oc2ccc(OC)cc2)c(O)c1`: the IC50 was 5.44 µM.
For `C=C(C)COc1ccc(-c2[nH]ncc2Oc2cccc(OC)c2)c(O)c1`, the IC50 is 7.45 µM.
`C(=C\c1ccccc1)/C=N/Nc1nc2ccccc2s1`: the IC50 was > 69.5 µM (inactive).
